The values below come from patent publication US20060003028A1, “Stable oxidizing bromine composition, method of manufacture and use thereof for biofouling control” (priority 2004, published 2006).

The test system of data set [1] is mixed cooling water bacterial culture. In words: Control experiments: bromide addition alone in phosphate buffer, plate counts. In kind it is cell-based. As to the method:
In order to make certain that the observed biocidal performance enhancement is not caused by the bromide addition alone, a set of control experiments are conducted. […] The differences among all the plate count results are well within the detection limit. Therefore, the performance improvement seen in Examples 1-3 is not caused by the increased concentration of sodium bromide alone.

For data set [2] the following is noted: in water; cited from earlier work.

In the case of `[Br-].[Na+]` [NaBr, sodium bromide], the “Biocidal effect of bromide addition alone” value in data set [1] (50-150 ppm NaBr in phosphate buffer) is “not biocidal”. Also, the Bacterial counts in data set [1] (50 ppm NaBr, 0 minutes) is recorded as 7.3 × 10^5 CFU/ml; in data set [1] (50 ppm NaBr, 5 minutes), 9.3 × 10^5 CFU/ml; in data set [1] (50 ppm NaBr, 10 minutes) it was 7.0 × 10^5 CFU/ml; in data set [1] (50 ppm NaBr, 60 minutes) it was 8.0 × 10^5 CFU/ml; in data set [1] (100 ppm NaBr, 0 minutes), 7.3 × 10^5 CFU/ml; in data set [1] (100 ppm NaBr, 5 minutes), 11.0 × 10^5 CFU/ml. For the same compound, the Bacterial counts in data set [1] (100 ppm NaBr, 10 minutes) is 8.2 × 10^5 CFU/ml; in data set [1] (100 ppm NaBr, 60 minutes), 5.4 × 10^5 CFU/ml; in data set [1] (150 ppm NaBr, 0 minutes), 7.3 × 10^5 CFU/ml; in data set [1] (150 ppm NaBr, 5 minutes), 8.4 × 10^5 CFU/ml; in data set [1] (150 ppm NaBr, 10 minutes), 5.2 × 10^5 CFU/ml; in data set [1] (150 ppm NaBr, 60 minutes) it was 8.3 × 10^5 CFU/ml.
For the compound `BrBr` [elemental liquid bromine, bromine], the solubility in data set [2] is reported as below 4 g/100 g water.
